# Source: BindingDB's records for doi:10.1016/j.bmcl.2009.02.053 (University of Warsaw, 2009)
# Assays:
# [1] = biological target: T1, Eukaryotic translation initiation factor 4E (Oryctolagus cuniculus, UniProt P29338); experiment: Inhibition of eukaryotic initiation factor 4E in micrococcal nuclease-pretreated rabbit reticulocyte lysate assessed as inhibition of m7,3'-O-GpppG-capped 5'UTRbetaglob-LUC mRNA translation treated 60 mins before mRNA addition by luciferase-based luminometry
# [2] = biological target: T1, Eukaryotic translation initiation factor 4E; experiment: Inhibition of eukaryotic initiation factor 4E in micrococcal nuclease-pretreated rabbit reticulocyte lysate assessed as inhibition of m7,3'-O-GpppG-capped 5'UTRbetaglob-LUC mRNA translation by luciferase-based luminometry
# T1 sequence (P29338 whole entry): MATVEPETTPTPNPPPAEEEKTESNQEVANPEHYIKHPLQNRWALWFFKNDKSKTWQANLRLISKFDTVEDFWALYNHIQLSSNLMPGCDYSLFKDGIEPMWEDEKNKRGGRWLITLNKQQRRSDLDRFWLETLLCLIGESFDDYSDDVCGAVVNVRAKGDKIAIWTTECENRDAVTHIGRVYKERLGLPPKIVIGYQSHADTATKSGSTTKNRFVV
compound,measurement,setting,value
"C[n+]1cn(C2OC(COP(=O)(S)OP(=O)(O)OP(=O)(O)O)C(O)C2O)c2nc(N)[n-]c(=O)c21 [2-amino-9-[(2R,3R,4S,5R)-3,4-dihydroxy-5-{[({[(phosphonatooxy)phosphinato]oxy}(sulfanidyl)phosphoryl)oxy]methyl}oxolan-2-yl]-7-methyl-6-oxido-9H-purin-7-ium]",IC50,[1],1300 nM
same,IC50,[2],1440 nM
